Among the data in PubChem BioAssay (NCI) are TGI values, retold here.

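48-hour exposure; five concentrations; linearly interpolated endpoints. TGI: total growth inhibition.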 Where a SMILES comes first, the peptide text is derived from it. The star is where a group is joined. Boc = CC(C)(C)OC(=O)*

For the first test, the system named is KM12 colon. Description: DTP human tumour cell line panel, 48 h.
With `C=C(C)C12CC(COC(=O)c3ccccc3)C34OC5(OC1C3C1OC1(CO)C(O)C1(O)C(OC(=O)c3ccccc3)C(C)C(C(C)CCCCCCC5O)C14)O2` (stereo unspecified), the concentration for total growth inhibition (TGI) (in general, the concentration giving total growth inhibition) was more than 100 µM.
On the same count and under the same terms, the result for `C[C@@]12[C@H]3CC[C@@H]1[C@H](O)C(=O)N2CC3` reads more than 100 µM; that for `COC(=O)CNC(=O)C(Cc1ccccc1)NC(=O)C(CCSC)NC(=O)C(Cc1ccc(O)cc1)NC(=O)OC(C)(C)C` (stereo unspecified) (Boc-YMFG-OMe; configuration not given here), more than 100 µM.
Compound `O=C1CCC[C@@H]2NC[C@@H](c3ccc4c(c3)OCO4)[C@H]12` returned a TGI of more than 25 µM.
The same measure, in the same setting: the result for `Cc1ccc([C@@H]2[C@@H](C(=O)c3ccccn3)[C@H](c3ccc(C)cc3)C[C@](O)(c3ccccn3)[C@H]2C(=O)c2ccccn2)cc1` reads more than 100 µM.
Still for that read-out and setting: the result for `COc1cc(/C=C2/C(=O)N(C(=O)c3ccccc3O)N=C2C)cc(OC)c1OC` reads more than 100 µM; that for `CCCc1cc(=O)c2c(C)c3[nH]c4ccc(Cl)cc4c3c(C)c2[nH]1`, 12.3 µM.
As to `CC(CN1c2ccccc2Sc2ccccc21)N(C)C` (stereo unspecified), the TGI amounted to 37.6 µM.
On the same count and under the same terms, for `Cc1nnc(Nc2ccccc2)o1` the value was more than 100 µM.

The next test deals with NCI-H226 lung. Description: DTP human tumour cell line panel, 48 h.
The compound `COc1ccc(C2CC(c3c(O)ccc4ccccc34)=NN2c2ccc([N+](=O)[O-])cc2[N+](=O)[O-])cc1OC` (stereo unspecified) yielded a concentration for total growth inhibition (TGI) of 48.9 µM.
The compound `CN1C(=O)C2C(=O)N(Cc3ccccc3)CC(=O)N2c2cccnc21` (stereo unspecified) came in with a total growth inhibition concentration (TGI) of more than 100 µM.
Same read-out and setting: the result for `O=C(O)CSc1nnc(COc2ccc(Cl)cc2)n1-c1ccccc1` reads more than 100 µM; that for `CN(C)CCCOc1nc2c(c(=O)n(C)c(=O)n2C)n1C` (tested in a mixture with another compound), 47.7 µM.
On the same count and under the same terms, for `C[N+]1=C2[B-](C(C)(C)C)=[N+](C(C)(C)C)[B-]2(C(C)(C)C)[N+](C)=C2[B-](C(C)(C)C)=[N+](C(C)(C)C)[B-]21C(C)(C)C` (stereo unspecified) the value was more than 100 µM; for `Brc1ccc(CCNCCN2CCCCC2)cc1`, 59 µM.
On the same count and under the same terms, the result for `Cc1ccc(C(=O)Nc2ccc(CP(=O)(O)O)cc2CP(=O)(O)O)cc1NC(=O)c1cccc(N)c1` reads more than 100 µM; that for `OC1C2[C@@H](O)CCCN2C[C@@H](O)[C@H]1O` (stereo partly specified), more than 100 µM; that for `CC[C@]1(Cc2ccc(OC)c(OC)c2)CN(S(=O)(=O)c2ccc(C)cc2)C[C@@H]1OC(C)=O`, more than 100 µM.
The compound `Cc1c(F)c(N)c2c(=O)cc(-c3ccc(NC(=O)CN(C)C)c(F)c3)oc2c1F` had a TGI of more than 100 µM.
`O=C(CC(=O)n1nc(-c2ccccc2)c(N=Nc2ccccc2C(=O)O)c1-c1ccccc1)Nc1ccc(Cl)cc1` registered a TGI of more than 100 µM.
Consider `C=C(C)C12CC(COC(=O)c3ccccc3)C34OC5(OC1C3C1OC1(CO)C(O)C1(O)C(OC(=O)c3ccccc3)C(C)C(C(C)CCCCCCC5O)C14)O2` (stereo unspecified), for which the TGI is more than 100 µM.
On the same count and under the same terms, for `C[C@@]12[C@H]3CC[C@@H]1[C@H](O)C(=O)N2CC3` the value was more than 100 µM; for `COC(=O)CNC(=O)C(Cc1ccccc1)NC(=O)C(CCSC)NC(=O)C(Cc1ccc(O)cc1)NC(=O)OC(C)(C)C` (stereo unspecified) (Boc-YMFG-OMe; configuration not given here), more than 100 µM; for `O=C1CCC[C@@H]2NC[C@@H](c3ccc4c(c3)OCO4)[C@H]12`, more than 25 µM.
On the same count and under the same terms, for `Cc1ccc([C@@H]2[C@@H](C(=O)c3ccccn3)[C@H](c3ccc(C)cc3)C[C@](O)(c3ccccn3)[C@H]2C(=O)c2ccccn2)cc1` the value was more than 100 µM.
The same measure, in the same setting: the result for `COc1cc(/C=C2/C(=O)N(C(=O)c3ccccc3O)N=C2C)cc(OC)c1OC` reads more than 100 µM; that for `CCCc1cc(=O)c2c(C)c3[nH]c4ccc(Cl)cc4c3c(C)c2[nH]1`, 12.8 µM; that for `CC(CN1c2ccccc2Sc2ccccc21)N(C)C` (stereo unspecified), 34.5 µM.
With `Cc1nnc(Nc2ccccc2)o1`, the TGI was more than 100 µM.

For a further test, the system named is RPMI-8226 leukemia. Description: DTP human tumour cell line panel, 48 h.
`COc1ccc(C2CC(c3c(O)ccc4ccccc34)=NN2c2ccc([N+](=O)[O-])cc2[N+](=O)[O-])cc1OC` (stereo unspecified) showed a TGI of 15.8 µM.
Compound `CN1C(=O)C2C(=O)N(Cc3ccccc3)CC(=O)N2c2cccnc21` (stereo unspecified) yielded a concentration for total growth inhibition (TGI) of more than 100 µM.
Same read-out and setting: the result for `CN(C)CCCOc1nc2c(c(=O)n(C)c(=O)n2C)n1C` (tested in a mixture with another compound) reads more than 100 µM; that for `C[N+]1=C2[B-](C(C)(C)C)=[N+](C(C)(C)C)[B-]2(C(C)(C)C)[N+](C)=C2[B-](C(C)(C)C)=[N+](C(C)(C)C)[B-]21C(C)(C)C` (stereo unspecified), more than 100 µM.
As to `Brc1ccc(CCNCCN2CCCCC2)cc1`, the TGI is more than 100 µM.
Same read-out and setting: for `Cc1ccc(C(=O)Nc2ccc(CP(=O)(O)O)cc2CP(=O)(O)O)cc1NC(=O)c1cccc(N)c1` the value was more than 100 µM.
Same read-out and setting: the result for `OC1C2[C@@H](O)CCCN2C[C@@H](O)[C@H]1O` (stereo partly specified) reads more than 100 µM.
`CC[C@]1(Cc2ccc(OC)c(OC)c2)CN(S(=O)(=O)c2ccc(C)cc2)C[C@@H]1OC(C)=O` gave a TGI of more than 100 µM.
Compound `Cc1c(F)c(N)c2c(=O)cc(-c3ccc(NC(=O)CN(C)C)c(F)c3)oc2c1F` gave a TGI of more than 83 µM.
On the same count and under the same terms, the result for `O=C(CC(=O)n1nc(-c2ccccc2)c(N=Nc2ccccc2C(=O)O)c1-c1ccccc1)Nc1ccc(Cl)cc1` reads more than 100 µM; that for `C=C(C)C12CC(COC(=O)c3ccccc3)C34OC5(OC1C3C1OC1(CO)C(O)C1(O)C(OC(=O)c3ccccc3)C(C)C(C(C)CCCCCCC5O)C14)O2` (stereo unspecified), more than 75.8 µM; that for `C[C@@]12[C@H]3CC[C@@H]1[C@H](O)C(=O)N2CC3`, more than 100 µM.
Same read-out and setting: the result for `COC(=O)CNC(=O)C(Cc1ccccc1)NC(=O)C(CCSC)NC(=O)C(Cc1ccc(O)cc1)NC(=O)OC(C)(C)C` (stereo unspecified) (Boc-YMFG-OMe; configuration not given here) reads 50.2 µM; that for `O=C1CCC[C@@H]2NC[C@@H](c3ccc4c(c3)OCO4)[C@H]12`, more than 25 µM; that for `Cc1ccc([C@@H]2[C@@H](C(=O)c3ccccn3)[C@H](c3ccc(C)cc3)C[C@](O)(c3ccccn3)[C@H]2C(=O)c2ccccn2)cc1`, more than 92.6 µM.
For `COc1cc(/C=C2/C(=O)N(C(=O)c3ccccc3O)N=C2C)cc(OC)c1OC`, the concentration for total growth inhibition (TGI) was more than 100 µM.
In turn, `Cc1nnc(Nc2ccccc2)o1` came in with a total growth inhibition concentration (TGI) of more than 100 µM.
